From ChEMBL document CHEMBL6087436, “The novel β-hairpin antimicrobial peptide D-G(RF)3 demonstrates exceptional antibacterial efficacy” (Eur J Med Chem, 2025)
Active and inactive are the calls of the source. The calls are words filed in the database; no cut-off is given here. Where a SMILES comes first, the peptide text is derived from it. Bridges are numbered along the chain shown (N, C = ends). [ ]: non-standard residue; d: D form. The star is where a group is joined. X1 = CC[C@H](C)CCCCC(=O)*; dDab = NCC[C@@H](N)C(=O)O; Dab = NCC[C@H](N)C(=O)O

Assays:
[1] = Acute toxicity in male balb/c mouse assessed as inflammatory cell infiltration in lung administered intraperitoneally by H and E staining based analysis; type: tissue-based; conditions: in vivo, ip
[2] = Acute toxicity in male balb/c mouse assessed as respiratory depression by measuring tissue bleeding in lung administered intraperitoneally by H and E staining based analysis; conditions: in vivo, ip
[3] = Acute toxicity in male balb/c mouse assessed as alveolar shrinkage in lung administered intraperitoneally by H and E staining based analysis; type: tissue-based; conditions: in vivo, ip
[4] = Acute toxicity in male balb/c mouse assessed as lethal dose at ip administration; type: organism-based; conditions: in vivo
[5] = Acute toxicity in IP dosed male balb/c mouse assessed as animal death; type: organism-based; conditions: in vivo
[6] = system: Klebsiella pneumoniae; test: In vivo antibacterial activity against Klebsiella pneumoniae ATCC 700603 infected in male Balb/c mouse lung infection model assessed as reduction in alveoli expansion at 10 mg/kg, ip measured after 24 hrs by H and E staining based analysis; type: functional, organism-based
[7] = system: Cell membrane; test: Induction of cell membrane permeability in Escherichia coli assessed as rough convex surface at 2 times MIC by SEM analysis; type: subcellular
[8] = system: Escherichia coli; test: Inhibition of biofilm formation in Escherichia coli ATCC 25922 at 1 uM incubated for 24 hrs by crystal violet staining based analysis; type: functional, organism-based
[9] = system: Klebsiella pneumoniae; test: In vivo antibacterial activity against Klebsiella pneumoniae ATCC 700603 infected in male Balb/c mouse lung infection model assessed as reduction in serous exudation of alveolar cavities at 10 mg/kg, ip measured after 24 hrs by H and E staining based analysis; type: functional, organism-based
[10] = system: Klebsiella pneumoniae; test: In vivo antibacterial activity against Klebsiella pneumoniae ATCC 700603 infected in male Balb/c mouse lung infection model assessed as reduction in crumpling alveoli at 10 mg/kg, ip measured after 24 hrs by H and E staining based analysis; type: functional, organism-based
[11] = system: Escherichia coli; test: Inhibition of biofilm formation in Escherichia coli ATCC 25922 at >= 2 uM incubated for 24 hrs by crystal violet staining based analysis; type: functional, organism-based
[12] = system: Klebsiella pneumoniae; test: In vivo antibacterial activity against Klebsiella pneumoniae ATCC 700603 infected in male Balb/c mouse lung infection model assessed as increase on compensatory dilation at 5 mg/kg, ip and measured after 24 hrs; type: functional, organism-based
[13] = system: Klebsiella pneumoniae; test: Inhibition of biofilm formation in Klebsiella pneumoniae ATCC 700603 at 1 uM incubated for 24 hrs by crystal violet staining based analysis; type: functional, organism-based
[14] = system: Staphylococcus aureus; test: Inhibition of biofilm formation in Staphylococcus aureus ATCC 25923 incubated for 24 hrs by crystal violet staining based analysis; type: functional, organism-based; conditions: dose 1-32 µM
[15] = system: Pseudomonas aeruginosa; test: Inhibition of biofilm formation in Pseudomonas aeruginosa ATCC 27853 incubated for 24 hrs by crystal violet staining based analysis; type: functional, organism-based; conditions: dose 1-32 µM
[16] = system: Escherichia coli; test: Antimicrobial activity against Escherichia coli at 2 times MIC in presence of LPS preincubated for 1 hr followed by bacterial addition and measured after 6 hrs by LPS competitive inhibition assay; type: functional, organism-based
[17] = system: Escherichia coli; test: Inhibition of biofilm formation in Escherichia coli ATCC 25922 incubated for 24 hrs by crystal violet staining based analysis; type: functional, organism-based; conditions: dose 1-32 µM
[18] = system: Klebsiella pneumoniae; test: Inhibition of biofilm formation in Klebsiella pneumoniae ATCC 700603 incubated for 24 hrs by crystal violet staining based analysis; type: functional, organism-based; conditions: dose 1-32 µM
[19] = system: Cell membrane; test: Induction of Outer membrane permeabilization in Escherichia coli at 8 uM by NPN-dye based fluorescence analysis; type: subcellular
[20] = system: Escherichia coli; test: Antibacterial activity against Escherichia coli ATCC 25922 assessed as inhibition of bacterial growth incubated for 18 hrs by microbroth dilution assay; type: functional
[21] = system: Staphylococcus aureus; test: Synergistic antibacterial activity against Staphylococcus aureus assessed as fractional inhibitory concentration index in presence of bacitracin incubated for 18 hrs by checkerboard method; type: functional
[22] = system: Staphylococcus aureus; test: Antibacterial activity against Staphylococcus aureus ATCC 25923 assessed as fold change in activity in presence of 1 mM MgCl2; type: functional
[23] = system: Staphylococcus aureus; test: Antibacterial activity against Staphylococcus aureus ATCC 25923 assessed as fold change in activity in presence of 2 mM CaCl2; type: functional
[24] = system: Klebsiella pneumoniae; test: Synergistic antibacterial activity against Klebsiella pneumoniae assessed as fractional inhibitory concentration index in presence of rifampin incubated for 18 hrs by checkerboard method; type: functional
[25] = system: Pseudomonas aeruginosa; test: Synergistic antibacterial activity against Pseudomonas aeruginosa assessed as fractional inhibitory concentration index in presence of imipenem incubated for 18 hrs by checkerboard method; type: functional
[26] = system: Pseudomonas aeruginosa; test: Antibacterial activity against Pseudomonas aeruginosa ATCC 27853 assessed as inhibition of bacterial growth incubated for 18 hrs by microbroth dilution assay; type: functional
[27] = system: Staphylococcus aureus; test: Additive antibacterial activity against Staphylococcus aureus assessed as fractional inhibitory concentration index in presence of ciprofloxacin incubated for 18 hrs by checkerboard method; type: functional
[28] = system: Staphylococcus epidermidis; test: Antibacterial activity against Staphylococcus epidermidis ATCC 12228 assessed as inhibition of bacterial growth incubated for 18 hrs by microbroth dilution assay; type: functional
[29] = system: Escherichia coli; test: Synergistic antibacterial activity against Escherichia coli assessed as fractional inhibitory concentration index in presence of rifampin incubated for 18 hrs by checkerboard method; type: functional
[30] = system: Pseudomonas aeruginosa; test: Synergistic antibacterial activity against Pseudomonas aeruginosa assessed as fractional inhibitory concentration index in presence of rifampin incubated for 18 hrs by checkerboard method; type: functional
[31] = system: Pseudomonas aeruginosa; test: Synergistic antibacterial activity against Pseudomonas aeruginosa assessed as fractional inhibitory concentration index in presence of polymyxin B incubated for 18 hrs by checkerboard method; type: functional
[32] = system: Bacillus subtilis; test: Antibacterial activity against Bacillus subtilis ATCC 23857 assessed as inhibition of bacterial growth incubated for 18 hrs by microbroth dilution assay; type: functional
[33] = system: Pseudomonas aeruginosa; test: Induction of drug resistance in Pseudomonas aeruginosa ATCC 27853 assessed as fold increase in MIC incubated for 24 hrs and measured under 40 passages; type: functional
[34] = system: Staphylococcus aureus; test: Antibacterial activity against Staphylococcus aureus ATCC 25923 assessed as fold decrease in presence of 150 mM NaCl; type: functional
[35] = system: Klebsiella pneumoniae; test: Antibacterial activity against Klebsiella pneumoniae ATCC 700603 assessed as inhibition of bacterial growth incubated for 18 hrs by microbroth dilution assay; type: functional
[36] = system: Staphylococcus aureus; test: Antibacterial activity against Staphylococcus aureus ATCC 25923 assessed as inhibition of bacterial growth incubated for 18 hrs by microbroth dilution assay; type: functional
[37] = system: Klebsiella pneumoniae; test: Bactericidal activity against Klebsiella pneumoniae ATCC 700603 assessed as bacterial eradication by measuring bacterial counts at 2 times MIC measured after 30 mins by Time killing assay relative to control; type: functional; conditions: 0.5 h
[38] = system: Escherichia coli; test: Synergistic antibacterial activity against Escherichia coli assessed as fractional inhibitory concentration index in presence of kanamycin incubated for 18 hrs by checkerboard method; type: functional
[39] = system: Klebsiella pneumoniae; test: Additive antibacterial activity against Klebsiella pneumoniae assessed as fractional inhibitory concentration index in presence of kanamycin incubated for 18 hrs by checkerboard method; type: functional
[40] = system: Klebsiella pneumoniae; test: In vivo antibacterial activity against Klebsiella pneumoniae ATCC 700603 infected in male Balb/c mouse lung infection model assessed as reduction in pulmonary bacterial load at 5 mg/kg, ip measured after 24 hrs (reference value: 3.05 x 10^9 CFU/g); type: functional
[41] = system: Klebsiella pneumoniae; test: In vivo antibacterial activity against Klebsiella pneumoniae ATCC 700603 infected in male Balb/c mouse lung infection model assessed as reduction in pulmonary bacterial load at 10 mg/kg, ip measured after 24 hrs (reference value: 3.05 x 10^9 CFU/g); type: functional

With CC(C)CCCCC(=O)N[C@@H](CCN)C(=O)N[C@H](C(=O)N[C@@H](CCN)C(=O)N[C@H]1CCNC(=O)[C@H]([C@@H](C)O)NC(=O)[C@H](CCN)NC(=O)[C@H](CCN)NC(=O)[C@H](CC(C)C)NC(=O)[C@@H](Cc2ccccc2)NC(=O)[C@H](CCN)NC1=O)[C@@H](C)O.CC[C@H](C)CCCCC(=O)N[C@@H](CCN)C(=O)N[C@H](C(=O)N[C@@H](CCN)C(=O)N[C@H]1CCNC(=O)[C@H]([C@@H](C)O)NC(=O)[C@H](CCN)NC(=O)[C@H](CCN)NC(=O)[C@H](CC(C)C)NC(=O)[C@@H](Cc2ccccc2)NC(=O)[C@H](CCN)NC1=O)[C@@H](C)O (X1-[Dab]T[Dab][Dab][Dab][dF]L[Dab][Dab]T; lactam 4-C) [listing 1 of 2 here] the Activity [1] was “Toxic”, the Activity [2] was “Toxic” and the Activity [3] was “Toxic”. For the same molecule, the LD50 [4] was 17.9 mg/kg and the Activity [5] was “Toxic”.

In the case of CC(C)CCCCC(=O)N[C@@H](CCN)C(=O)N[C@H](C(=O)N[C@@H](CCN)C(=O)N[C@H]1CCNC(=O)[C@H]([C@@H](C)O)NC(=O)[C@H](CCN)NC(=O)[C@H](CCN)NC(=O)[C@H](CC(C)C)NC(=O)[C@@H](Cc2ccccc2)NC(=O)[C@@H](CCN)NC1=O)[C@@H](C)O.CC[C@H](C)CCCCC(=O)N[C@@H](CCN)C(=O)N[C@H](C(=O)N[C@@H](CCN)C(=O)N[C@H]1CCNC(=O)[C@H]([C@@H](C)O)NC(=O)[C@H](CCN)NC(=O)[C@H](CCN)NC(=O)[C@H](CC(C)C)NC(=O)[C@@H](Cc2ccccc2)NC(=O)[C@@H](CCN)NC1=O)[C@@H](C)O (X1-[Dab]T[Dab][Dab][dDab][dF]L[Dab][Dab]T; lactam 4-C), the Activity [6] is reported as “Active”, the Activity [7] is reported as “Active” and the inhibition [8] is reported as “Active”. For the same molecule, the Activity [9] was “Active”, the Activity [10] was “Active” and the inhibition [11] was “Active”. For the same molecule, the Activity [12] was “Active”, the inhibition [13] was “Active” and the inhibition [14] was “Dose-dependent-effect”. The inhibition [15] was “Dose-dependent-effect”, the Activity [16] was “inactive” and the inhibition [17] was “Dose-dependent-effect”. The inhibition [18] was “Dose-dependent-effect” and the Activity [19] was “Active”.

In the case of CC(C)CCCCC(=O)N[C@@H](CCN)C(=O)N[C@H](C(=O)N[C@@H](CCN)C(=O)N[C@H]1CCNC(=O)[C@H]([C@@H](C)O)NC(=O)[C@H](CCN)NC(=O)[C@H](CCN)NC(=O)[C@H](CC(C)C)NC(=O)[C@@H](Cc2ccccc2)NC(=O)[C@H](CCN)NC1=O)[C@@H](C)O.CC[C@H](C)CCCCC(=O)N[C@@H](CCN)C(=O)N[C@H](C(=O)N[C@@H](CCN)C(=O)N[C@H]1CCNC(=O)[C@H]([C@@H](C)O)NC(=O)[C@H](CCN)NC(=O)[C@H](CCN)NC(=O)[C@H](CC(C)C)NC(=O)[C@@H](Cc2ccccc2)NC(=O)[C@H](CCN)NC1=O)[C@@H](C)O (X1-[Dab]T[Dab][Dab][Dab][dF]L[Dab][Dab]T; lactam 4-C) [listing 2 of 2 here], the MIC [20] is reported as 2 µM, the “fractional inhibitory concentration index (FICI)” value [21] is reported as 0.5 and the “fold change (FC)” value [22] is reported as -2. For the same molecule, the “fold change (FC)” value [23] was -2, the “fractional inhibitory concentration index (FICI)” value [24] was 0.375 and the “fractional inhibitory concentration index (FICI)” value [25] was 0.313. For the same molecule, the MIC [26] was 2 µM, the “fractional inhibitory concentration index (FICI)” value [27] was 0.75 and the MIC [28] was 8 µM. For the same molecule, the “fractional inhibitory concentration index (FICI)” value [29] was 0.313, the “fractional inhibitory concentration index (FICI)” value [30] was 0.313 and the “fractional inhibitory concentration index (FICI)” value [31] was 0.188. For the same molecule, the MIC [32] was 4 µM, the “fold change (FC)” value [33] was 8 and the “fold change (FC)” value [34] was -4. For the same molecule, the MIC [35] was 2 µM, the MIC [36] was 8 µM and the Activity [37] was 100%. The “fractional inhibitory concentration index (FICI)” value [38] was 0.313, the “fractional inhibitory concentration index (FICI)” value [39] was 0.563 and the Activity [40] was 1.48 10^8CFU/g. The Activity [41] was 2.46 10^8CFU/g.
